The results in this text go back to patent US9468209B2, “Method for eradicating weeds with derivatives of 3-acetyl-5-sec-butyl-4-hydroxy-3-pyrrolin-2-one” (priority 2012, dated 2016).

What all share (assay): Leaf piece damage test
Holding throughout (format): in vivo
What all share (parameters): key: 4: The leaf completely dead; 3: Two third of the leaf withered; 2: One half of the leaf withered; 1: Only edge of the leaf withered; 0: Not damage at all
Common to all, as to details: 50 μg/mL, 4 days

The test system of one assay is Chenopodium serotinum. As for the experimental part:
(§1) Compounds 7, 14, 15, 16, 40, 45, 48 and 53 were dissolved individually in small amount of methanol, and diluted with distilled water to concentration of 50 μg/mL. Methanol water solution and pure water were used as control. A piece of 5 mm leaf was taken from the second leaf of weed sample and was treated with the solution three times. 5 pieces of the leaf were prepared for each treatment. The damage data were collected 4 days later. The measurement of damage level is described in the Table 9.
(§2) The measurement of the plant damage was calculated by the formula: Damage Index=Σ(damage level×number of plants)×100/4/number of plants in each treatment.

The subject of a further assay is Acalypha australis. The method, then:
as §1, §2

For a further assay, the system named is Veronica percica. As for the experimental part: as §1, §2
The test system of another assay is Dichondra repens. As for the experimental part:
as §1, §2

The next assay deals with Oxalis corniculata. As for the experimental part:
as §1, §2

Another assay deals with Crisium setosum. The method, then: as §1, §2
For a further assay, the system named is Youngia japonica. As for the experimental part: as §1, §2
In another assay the test system is Fimbristylis miliacea. As for the experimental part:
as §1, §2

For the next assay, the system named is Abrtilon theophrasti. As for the experimental part:
as §1, §2

The test system of another assay is Cyperus difformis. The method, then: as §1, §2
The test system of a further assay is Cyperus rotundus. As for the experimental part:
as §1, §2

The test system of the next assay is Sonchus oleraceus. The method, then:
as §1, §2

The test system of the next assay is Japanese alopecurus. The method, then:
as §1, §2

In assay [1] the test system is Green foxtail (Setaria viridis). As for the experimental part:
as §1, §2

The test system of assay [2] is Parthenocissus tricuspidata. The method, then:
as §1, §2

The next assay has as its system Rumex dentatus. The method, then: as §1, §2
The next assay deals with Pharbitis nil. The method, then: as §1, §2
Another assay has as its system Goose grass. The method, then:
as §1, §2

Another assay relates to Malvaceae. The method, then: as §1, §2
The next assay concerns Xanthium sibiricum. As for the experimental part:
as §1, §2

A further assay concerns Lapsana apogonoides. The method, then: as §1, §2
Another assay deals with Commelina bengalensis. The method, then: as §1, §2

In the case of `CCCCC1NC(=O)C(C(C)=O)=C1O` (stereo not drawn) [Compound 14], the Damage level with Chenopodium serotinum is 2; with Acalypha australis, 2; with Veronica percica, 2; in the assay on Dichondra repens it was 2; with Oxalis corniculata, 4; in the assay with Crisium setosum it was 3. In addition, the Damage level was 3 in the assay with Youngia japonica; 2 in the assay with Fimbristylis miliacea; 2 with Abrtilon theophrasti; 3 in the assay with Cyperus difformis; 2 in the assay with Cyperus rotundus; 3 in the assay on Sonchus oleraceus. Moreover, the Damage level with Japanese alopecurus stood at 3; in assay [1], 3; in assay [2], 2; in the assay on Rumex dentatus, 2; in the assay with Pharbitis nil, 2; in the assay on Goose grass, 3. Besides, the Damage level in the assay with Malvaceae is 2; in the assay on Xanthium sibiricum, 2; in the assay on Lapsana apogonoides, 3; in the assay on Commelina bengalensis, 3.

For `CCCCCC1NC(=O)C(C(C)=O)=C1O` (stereo not drawn) [Compound 15], the Damage level with Chenopodium serotinum stood at 2; in the assay with Acalypha australis, 2; with Veronica percica it was 2; with Dichondra repens it was 2; with Oxalis corniculata, 3; in the assay with Crisium setosum, 3. In addition, the Damage level in the assay with Youngia japonica is reported as 3; in the assay with Fimbristylis miliacea it was 2; in the assay on Abrtilon theophrasti it was 2; in the assay on Cyperus difformis, 3; in the assay on Cyperus rotundus it was 2; in the assay with Sonchus oleraceus, 3. Also, the Damage level in the assay with Japanese alopecurus came to 3; in [1], 4; in [2] it was 3; in the assay on Rumex dentatus, 2; in the assay with Pharbitis nil it was 3; with Goose grass it was 3. Also, the Damage level in the assay on Malvaceae was determined as 2; in the assay on Xanthium sibiricum, 2; in the assay on Lapsana apogonoides, 2; in the assay on Commelina bengalensis, 3.

As to `CCCCCCC1NC(=O)C(C(C)=O)=C1O` (stereo not drawn) [Compound 16], the Damage level amounted to 2 in the assay with Chenopodium serotinum; 2 in the assay on Acalypha australis; 2 in the assay on Veronica percica; 3 in the assay with Dichondra repens; 4 with Oxalis corniculata; 3 in the assay on Crisium setosum. Besides, the Damage level in the assay with Youngia japonica was determined as 3; in the assay with Fimbristylis miliacea it was 3; with Abrtilon theophrasti it was 3; with Cyperus difformis, 3; in the assay on Cyperus rotundus, 2; in the assay on Sonchus oleraceus it was 3. Also, the Damage level turned out to be 3 in the assay on Japanese alopecurus; 3 in assay [1]; 2 in assay [2]; 2 with Rumex dentatus; 2 in the assay with Pharbitis nil; 3 in the assay on Goose grass. Further, the Damage level in the assay on Malvaceae is listed as 2; in the assay with Xanthium sibiricum, 2; in the assay on Lapsana apogonoides it was 3; in the assay with Commelina bengalensis, 3.

Regarding `CCCC(Cl)C1NC(=O)C(C(C)=O)=C1O` (stereo not drawn) [Compound 40], the Damage level in the assay on Chenopodium serotinum was 2; in the assay with Acalypha australis, 3; with Veronica percica, 3; in the assay on Dichondra repens, 3; in the assay with Oxalis corniculata, 4; in the assay with Crisium setosum it was 3. Moreover, the Damage level is recorded as 3 in the assay on Youngia japonica; 3 with Fimbristylis miliacea; 3 in the assay on Abrtilon theophrasti; 3 in the assay on Cyperus difformis; 2 in the assay with Cyperus rotundus; 3 in the assay on Sonchus oleraceus. Moreover, the Damage level in the assay on Japanese alopecurus worked out at 3; in assay [1] it was 3; in assay [2] it was 2; with Rumex dentatus it was 2; with Pharbitis nil, 2; in the assay on Goose grass, 4. The Damage level is on record as 2 in the assay on Malvaceae, 2 in the assay on Xanthium sibiricum, 3 in the assay with Lapsana apogonoides and 3 in the assay on Commelina bengalensis.

With `CCC(C)C1NC(=O)C(C(=O)CCF)=C1O` (stereo not drawn) [Compound 44], the Damage level with Chenopodium serotinum was found to be 3; in the assay on Acalypha australis, 3; with Veronica percica, 3; in the assay with Dichondra repens, 2; with Oxalis corniculata, 4; in the assay with Crisium setosum it was 3. Further, the Damage level is recorded as 3 in the assay on Youngia japonica; 2 in the assay with Fimbristylis miliacea; 2 in the assay with Abrtilon theophrasti; 3 with Cyperus difformis; 2 with Cyperus rotundus; 3 in the assay with Sonchus oleraceus. Further, the Damage level in the assay with Japanese alopecurus came to 4; in assay [1], 4; in assay [2] it was 3; in the assay with Rumex dentatus, 3; with Pharbitis nil it was 3; in the assay with Goose grass, 3. For the same compound, the Damage level with Malvaceae stood at 2; with Xanthium sibiricum, 2; in the assay on Lapsana apogonoides it was 3; with Commelina bengalensis, 3.

Take `CCC(C)C1NC(=O)C(C(=O)CCc2cc(Cl)cc(Cl)c2)=C1O` (stereo not drawn) [Compound 48]: the Damage level is given as 3 with Chenopodium serotinum; 3 in the assay on Acalypha australis; 3 in the assay on Veronica percica; 3 with Dichondra repens; 4 with Oxalis corniculata; 4 in the assay with Crisium setosum. Further, the Damage level in the assay with Youngia japonica is given as 3; in the assay on Fimbristylis miliacea, 3; in the assay on Abrtilon theophrasti, 3; with Cyperus difformis, 4; with Cyperus rotundus, 2; in the assay on Sonchus oleraceus, 4. In addition, the Damage level in the assay on Japanese alopecurus is recorded as 4; in assay [1], 4; in assay [2], 3; in the assay with Rumex dentatus, 3; in the assay with Pharbitis nil, 3; in the assay with Goose grass it was 3. Besides, the Damage level in the assay on Malvaceae is 2; with Xanthium sibiricum it was 3; with Lapsana apogonoides, 4; in the assay on Commelina bengalensis, 4.
